Results on 12 compounds are retold here after patent publication US10501514B2, “Cyclic galanin-analogs and uses thereof” (LanthioPep B.V., priority 2015, dated 2019).

SMILES strings stand for the structures. “Also recorded” adds a separate entry of the source.

What all share (assay type): cell-based
One experiment addresses T1, GalR2 (Homo sapiens, UniProt O43603).
T1 construct: expressed in transfected cells; host or cells: HEK293
T1 sequence (O43603 1-387): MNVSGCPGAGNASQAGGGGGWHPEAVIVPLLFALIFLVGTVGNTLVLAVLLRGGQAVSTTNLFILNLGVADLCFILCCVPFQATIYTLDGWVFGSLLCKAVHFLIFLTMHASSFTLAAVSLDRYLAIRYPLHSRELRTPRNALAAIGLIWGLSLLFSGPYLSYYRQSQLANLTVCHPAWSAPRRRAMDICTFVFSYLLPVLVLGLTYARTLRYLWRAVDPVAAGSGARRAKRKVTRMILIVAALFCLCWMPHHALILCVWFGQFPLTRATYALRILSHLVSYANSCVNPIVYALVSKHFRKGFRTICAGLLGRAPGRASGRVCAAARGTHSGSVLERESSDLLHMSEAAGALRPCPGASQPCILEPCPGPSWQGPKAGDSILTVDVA
Particulars: for efficacy via GalR2 compared with GalWtb, in words: GalR2, Table 1 data. On the procedure: (§1) ND indicates ‘not determined’.
Peptide was dissolved in 0.3% ammonia. […] Different isomers were purified and lyophilized.

For experiment [1], the system named is Galanin receptor (GalR1, GalR2). Put plainly: Galanin receptor activation assays, overall statements in words. Particulars: for preference for stimulating GalR2 (over GalR1), in words: GalR2 versus GalR1; for activity, in words: overall statement on galanin receptor activation. On the procedure:
(§2) The biological activity of the (lanthi)galanins was determined in CHO-K1 cell lines that express either the GalR1, or GalR2 receptor. Activity measurements were performed using commercial kits from DiscoverX for determining arrestin recruitment (GalR1, GalR2) and inhibition of cAMP synthesis (GalR1). In addition, HEK293 cell lines that express the GalR2 receptor have been used for methods from Molecular Probes to measure calcium efflux (GalR2).
Peptide was dissolved in 0.3% ammonia. Peptides were incubated o/n at 37° C. for the introduction of the lanthionine via base assisted sulfur extrusion of the disulfide bridged peptide. Different isomers could be isolated by HPLC applying the same method as was used as for the biologically produced peptides. Different isomers were purified and lyophilized. Dry peptides were dissolved in 100 mM phosphate buffer pH=7.6 and peptides were incubated o/n at 50° C. After HPLC purification peptides with a pE formation were selected and used in the different Galanin receptor activation assays.

The next experiment has as its target T2, GalR1 (Homo sapiens, UniProt P47211).
T2 sequence (P47211 1-349): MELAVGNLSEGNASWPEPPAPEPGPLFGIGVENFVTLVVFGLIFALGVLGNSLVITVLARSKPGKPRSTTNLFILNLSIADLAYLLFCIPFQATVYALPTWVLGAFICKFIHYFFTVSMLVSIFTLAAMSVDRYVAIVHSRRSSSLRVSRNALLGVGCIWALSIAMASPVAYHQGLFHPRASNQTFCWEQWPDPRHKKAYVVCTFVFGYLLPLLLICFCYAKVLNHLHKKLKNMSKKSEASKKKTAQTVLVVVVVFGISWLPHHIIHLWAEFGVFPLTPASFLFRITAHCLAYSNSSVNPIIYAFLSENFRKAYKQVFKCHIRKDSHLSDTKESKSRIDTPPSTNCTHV
Put plainly: inhibition of cAMP synthesis in CHO-K1 cells expressing GalR1 (DiscoverX kit). Also on record: host or cells: CHO-K1. The note with it: FIG. 3. The procedure: as §2, §1
Peptide was dissolved in 0.3% ammonia. Peptides were incubated o/n at 37° C. for the introduction of the lanthionine via base assisted sulfur extrusion of the disulfide bridged peptide. […] Different isomers were purified and lyophilized. Dry peptides were dissolved in 100 mM phosphate buffer pH=7.6 and peptides were incubated o/n at 50° C. After HPLC purification peptides with a pE formation were selected and used in the different Galanin receptor activation assays.

In the case of `CC(C)C[C@@H]1NC(=O)[C@H](CC(C)C)NC(=O)[C@H](Cc2ccc(O)cc2)NC(=O)C(NC(=O)[C@H](C)NC(=O)[C@H](C)NC(=O)[C@H](CC(N)=O)NC(=O)[C@H](CC(C)C)NC(=O)[C@@H](NC(=O)[C@H](Cc2c[nH]c3ccccc23)NC(=O)[C@@H]2CCC(=O)N2)[C@@H](C)O)CSCC(C(=O)O)NC1=O` (single isomer, unassigned) [4179 C, pEWTLNAAlanYLLlan], the “Ratio EC50s relative to Gal-(1-15), GalR2 Ca efflux” value on GalR2 was found to be 248.
Consider `CC(C)C[C@H](NC(=O)[C@H](CC(C)C)NC(=O)[C@H](Cc1ccc(O)cc1)NC(=O)CNC(=O)[C@H](C)NC(=O)[C@H](C)NC(=O)[C@H](CC(N)=O)NC(=O)[C@H](CC(C)C)NC(=O)[C@H](CC(N)=O)NC(=O)[C@H](Cc1c[nH]c2ccccc12)NC(=O)[C@@H]1CCC(=O)N1)C(=O)N[C@@H](C)C(=O)N[C@H]1C(=O)N[C@@H](Cc2c[nH]cn2)C(=O)N[C@@H](C)C(=O)N[C@H](C(=O)NCC(=O)N[C@@H](CC(N)=O)C(=O)N[C@@H](Cc2c[nH]cn2)C(=O)N[C@@H](CCCNC(=N)N)C(=O)O)CS[C@H]1C` [GalM50b], for which the “preference for stimulating GalR2 (over GalR1), in words” value (shortened to “preference … (over GalR1), in words”) in experiment [1] is listed as “preference for stimulating GalR2”.
Take `CC(C)C[C@H](NC(=O)[C@H](CC(C)C)NC(=O)[C@H](Cc1ccc(O)cc1)NC(=O)CNC(=O)[C@H](C)NC(=O)[C@H](C)NC(=O)[C@H](CC(N)=O)NC(=O)[C@H](CC(C)C)NC(=O)[C@H](CC(N)=O)NC(=O)[C@H](Cc1c[nH]c2ccccc12)NC(=O)CN)C(=O)NCC(=O)N1CCC[C@H]1C(=O)N[C@@H](Cc1c[nH]cn1)C(=O)N[C@H]1C(=O)N[C@@H](C(C)C)C(=O)NCC(=O)N[C@H](C(=O)N[C@@H](Cc2c[nH]cn2)C(=O)N[C@@H](CCCNC(=N)N)C(=O)O)CS[C@H]1C` [GalM52]: at GalR1, the “cAMP production via GalR1, in words” value was “inhibit cAMP production via GalR1”.
Regarding `CC(C)C[C@H](NC(=O)[C@H](CC(C)C)NC(=O)[C@H](Cc1ccc(O)cc1)NC(=O)CNC(=O)[C@H](C)NC(=O)[C@H](C)NC(=O)[C@H](CC(N)=O)NC(=O)[C@H](CC(C)C)NC(=O)[C@H](CC(N)=O)NC(=O)[C@H](Cc1c[nH]c2ccccc12)NC(=O)[C@@H]1CCC(=O)N1)C(=O)NCC(=O)N[C@@H](C)C(=O)N[C@H]1C(=O)N[C@@H](C)C(=O)N[C@@H](C(C)C)C(=O)N[C@H](C(=O)N[C@@H](CC(N)=O)C(=O)N[C@@H](Cc2c[nH]cn2)C(=O)N[C@@H](CCCNC(=N)N)C(=O)O)CS[C@H]1C` [GalM54], the “β-arrestin recruitment via GalR2, preference in words” value on GalR2 (FIG. 2) is on record as “preferentially stimulates β-arrestin recruitment via GalR2”. In experiment [1], the “preference … (over GalR1), in words” value is on record as “GalR2-specific; also recorded: preference for stimulating GalR2”.
In the case of `CC(C)C[C@H](NC(=O)[C@H](CC(C)C)NC(=O)[C@H](Cc1ccc(O)cc1)NC(=O)CNC(=O)[C@H](C)NC(=O)[C@H](C)NC(=O)[C@H](CC(N)=O)NC(=O)[C@H](CC(C)C)NC(=O)[C@H](CC(N)=O)NC(=O)[C@H](Cc1c[nH]c2ccccc12)NC(=O)[C@@H]1CCC(=O)N1)C(=O)NCC(=O)N[C@@H](C)C(=O)N[C@H]1C(=O)N[C@@H](C)C(=O)N[C@@H](C(C)C)C(=O)N[C@H](C(=O)N[C@@H](CC(N)=O)C(=O)N[C@@H](Cc2c[nH]cn2)C(=O)O)CS[C@H]1C` [GalM54tr], the “preference … (over GalR1), in words” value in experiment [1] is listed as “GalR2-specific”.
Consider `CC(C)C[C@@H]1NC(=O)[C@H](Cc2ccc(O)cc2)NC(=O)C(NC(=O)[C@H](C)NC(=O)[C@H](C)NC(=O)[C@H](CC(N)=O)NC(=O)[C@H](CC(C)C)NC(=O)[C@H](CC(N)=O)NC(=O)[C@H](Cc2c[nH]c3ccccc23)NC(=O)CN)CSC[C@@H](C(=O)NCC(=O)N2CCC[C@H]2C(=O)N[C@@H](Cc2c[nH]cn2)C(=O)N[C@@H](C)C(=O)N[C@H](C(=O)NCC(=O)N[C@@H](CC(N)=O)C(=O)N[C@@H](Cc2c[nH]cn2)C(=O)N[C@@H](CCCNC(=N)N)C(=O)O)C(C)C)NC(=O)[C@H](CC(C)C)NC1=O` (stereo partly shown) [GalM73], for which the “activity, in words” value in experiment [1] is “retained some activity”.
Take `CC(C)C[C@H](NC(=O)[C@H](CC(C)C)NC(=O)[C@H](Cc1ccc(O)cc1)NC(=O)CNC(=O)[C@H](C)NC(=O)[C@H](C)NC(=O)[C@H](CC(N)=O)NC(=O)[C@H](CC(C)C)NC(=O)[C@H](CC(N)=O)NC(=O)[C@H](Cc1c[nH]c2ccccc12)NC(=O)[C@@H]1CCC(=O)N1)C(=O)NCC(=O)N1CCC[C@H]1C(=O)N[C@@H](Cc1c[nH]cn1)C(=O)N[C@@H](C)C(=O)N[C@H]1C(=O)NCC(=O)N[C@@H](CC(N)=O)C(=O)N[C@H](C(=O)N[C@@H](CCCNC(=N)N)C(=O)O)CS[C@H]1C` [GalM74b]: in experiment [1], the “preference … (over GalR1), in words” value is given as “preference for stimulating GalR2”.
With `CC(C)C[C@@H]1NC(=O)[C@H](CC(C)C)NC(=O)[C@H](Cc2ccc(O)cc2)NC(=O)[C@H](NC(=O)[C@H](C)NC(=O)[C@H](C)NC(=O)[C@H](CC(N)=O)NC(=O)[C@H](CC(C)C)NC(=O)[C@H](CC(N)=O)NC(=O)[C@H](Cc2c[nH]c3ccccc23)NC(=O)[C@@H]2CCC(=O)N2)CSC[C@@H](C(=O)O)NC1=O` [GalM82], the “activity, in words” value in experiment [1] is “low activity”.
With `CC(C)C[C@H](NC(=O)[C@H](CC(C)C)NC(=O)[C@H](Cc1ccc(O)cc1)NC(=O)CNC(=O)[C@H](C)NC(=O)[C@H](C)NC(=O)[C@H](CC(N)=O)NC(=O)[C@H](CC(C)C)NC(=O)[C@H](CC(N)=O)NC(=O)[C@H](Cc1c[nH]c2ccccc12)NC(=O)[C@@H]1CCC(=O)N1)C(=O)NCC(=O)N1CCC[C@H]1C(=O)N[C@H]1C(=O)N[C@@H](C)C(=O)N[C@@H](C(C)C)C(=O)N[C@H](C(=O)O)CS[C@H]1C` [GalM87], the “preference … (over GalR1), in words” value in experiment [1] was “preference for stimulating GalR2”.
Regarding `CC(C)C[C@H](NC(=O)[C@H](CC(C)C)NC(=O)[C@H](Cc1ccc(O)cc1)NC(=O)CNC(=O)[C@H](C)NC(=O)[C@H](C)NC(=O)[C@H](CC(N)=O)NC(=O)[C@H](CC(C)C)NC(=O)[C@H](CC(N)=O)NC(=O)[C@H](Cc1c[nH]c2ccccc12)NC(=O)[C@@H]1CCC(=O)N1)C(=O)N[C@@H](C)C(=O)N[C@H]1C(=O)N[C@@H](Cc2c[nH]cn2)C(=O)N[C@@H](C)C(=O)N[C@H](C(=O)NCC(=O)O)CS[C@H]1C` [GalM89b], in experiment [1], the “preference … (over GalR1), in words” value is listed as “preference for stimulating GalR2”.
With `CC(C)C[C@H](NC(=O)[C@H](CC(C)C)NC(=O)[C@H](Cc1ccc(O)cc1)NC(=O)CNC(=O)[C@H](C)NC(=O)[C@H](C)NC(=O)[C@H](CC(N)=O)NC(=O)[C@@H](NC(=O)[C@H](CC(N)=O)NC(=O)[C@H](Cc1c[nH]c2ccccc12)NC(=O)CN)C(C)C)C(=O)NCC(=O)N[C@@H](C)C(=O)N[C@H]1C(=O)N[C@@H](C)C(=O)N[C@@H](C(C)C)C(=O)N[C@H](C(=O)N[C@@H](CC(N)=O)C(=O)N[C@@H](Cc2c[nH]cn2)C(=O)N[C@@H](CCCNC(=N)N)C(=O)O)CS[C@H]1C` [GalM92], the “efficacy via GalR2 compared with GalWtb, in words” value at GalR2 was “comparable efficacy via GalR2 like GalWtb”.
For the compound `CC(C)C[C@H](NC(=O)[C@H](CC(C)C)NC(=O)[C@H](Cc1ccc(O)cc1)NC(=O)CNC(=O)[C@H](C)NC(=O)[C@H](C)NC(=O)[C@H](CC(N)=O)NC(=O)[C@H](CC(N)=O)NC(=O)[C@H](CC(N)=O)NC(=O)[C@H](Cc1c[nH]c2ccccc12)NC(=O)CN)C(=O)NCC(=O)N[C@@H](C)C(=O)N[C@H]1C(=O)N[C@@H](C)C(=O)N[C@@H](C(C)C)C(=O)N[C@H](C(=O)N[C@@H](CC(N)=O)C(=O)N[C@@H](Cc2c[nH]cn2)C(=O)N[C@@H](CCCNC(=N)N)C(=O)O)CS[C@H]1C` [GalM94], the “efficacy via GalR2 compared with GalWtb, in words” value at GalR2 is on record as “comparable efficacy via GalR2 like GalWtb”.
